Source: US20070161611A1, “POLYCYCLIC PHENOLIC COMPOUNDS AND USE IN TREATING VIRAL INFECTIONS” (priority 2005, published 2007)
Like-named read-outs stand apart in the source and are kept apart here.

Columns and labels:
BVDV-NADL = assay: Protection of MDBK cells from BVDV-induced cytopathicity (MTS/PMS CPE reduction assay); assay type: cell-based; conditions: Bovine viral diarrhea virus isolates and strains
Method: Cell proliferation was monitored using a non-radioactive MTS/PMS assay (MTS: 3-(4,5-dimethylthiazol-2-yl)-5-(3-carboxymethoxy phenyl)-2-(4-sulfophenyl)-2H-tetrazolium (Promega, Madison, Wis.)); (PMS: phenazine methosulfate (Sigma Aldrich, St. Louis, Mo.)). MDBK cells were seeded into 96-well plates at a density of approximately 2×10^4 cells per well. The cultures were incubated 3-24 hours to permit attachment of the cells to the plates prior to infection and addition of compounds. The appropriate PFU of BVDV-NADL were added to each well to achieve the desired MOI (<1 or >0.001); the cells were exposed to the virus diluted at the appropriate concentration in phosphate buffered saline (PBS) containing 1% horse serum (HS) for 1 to 2 hours. The virus was then removed and the cells were washed with PBS containing 1% HS. The test compounds were serially diluted in cell growth media with 2% HS and added to the cells. The plates were incubated at 37° C. in the presence of 5% CO2 for 3-4 days. Uninfected cells and infected, untreated cells (without compound) were used as additional controls. The final volume was 100 μl per well. After the 3-4 days of incubation a volume of 20 μL of the combined MTS/PMS solution was added into each well of the 96-well assay plate containing 100 μL of cells in culture medium to obtain final concentrations of 333 μg/ml MTS 5 and 25 μM PMS. A 96-well microtiter spectrophotometer plate reader was used to measure the absorbance at 490 nm after incubation of the 96-well plate for 1 to 4 hours at 37° C. in a humidified, 5% CO2 atmosphere. The mean absorbance in each set of triplicate wells was determined. Antiviral activity was measured as MTS conversion relative to the differential between the conversion for cell (non-infected) and viral (non-drug-treated) controls. The cytopathic effect (CPE) reduction for each concentration of the tested compound, which correlated with antiviral activity, was calculated as follows. % CPE reduction=[(D−ND)/(NI−ND)]×100, where D (drug-treated)=the absorbance of drug-treated cells; ND (non drug-treated)=the absorbance of untreated infected cells; and NI (non-infected)=the absorbance of non-infected cells. EC50 represents the concentration of drug that protects 50% of the cells from BVDV induced cytotoxicity (50% CPE reduction). CC50 equals the concentration that affects the viability of 50% of the MDBK cells.
The compounds were combined at fixed molar ratios and serially diluted 2-fold in cell growth medium to examine a range of 6 fixed ratio combinations including those having about an equipotent antiviral dose to a combination in which one test compound was used at a sub-optimal level (e.g., sub-therapeutic).

in vitro [1] = conditions: human
HIV-1RF = assay: Anti-HIV-1 activity in CEM-SS cells (inhibition of HIV-1 induced cytotoxicity); conditions: Human immunodeficiency virus 1, CEM-SS; for EC50: read-out: CEM-SS/HIV-1RF EC50
[2] = Toxicity in AVA5 replicon cells (neutral red dye uptake); conditions: human, AVA5 cells (HCV RNA-replicating, Huh7-derived)
Method: The antiviral activity of test compounds were assayed in the stably HCV RNA-replicating cell line, AVA5, derived by transfection of the human hepatoblastoma cell line, Huh7 (Blight, et al., 2000, Science 290: 1972). […] Intracellular HCV RNA levels and cytotoxicity were assessed 24 hours after the last dose of compound.
Assays were conducted using 4-5 doses of test compound. […] HCV RNA levels were assessed 24 hours after the last dose of compound using a dot blot hybridization assay. Both HCV and β-actin RNA levels in triplicate treated cultures were expressed as a percentage of the mean levels of RNA detected in untreated cultures (6 total). β-Actin RNA levels were used both as a measure of toxicity, and to normalize the amount of cellular RNA in each sample. Toxicity analyses were performed on separate plates from those used for the antiviral assays. Cells for the toxicity analyses were cultured and treated with test compounds with the same schedule and under identical culture conditions as used for the antiviral evaluations. Uptake of neutral red dye was used to determine the relative level of toxicity 24 hours following the last treatment. The absorbance of internalized dye at 510 nm (A510) was used for the quantitative analysis. Values in test cultures were compared to 9 cultures of untreated cells maintained on the same plate as the test cultures.

MDBK cells = assay: Cytotoxicity in uninfected MDBK cells after 24 h treatment (OD490); assay type: cell-based, bovine; conditions: untreated control OD490 1.2
Method: (§1) Madin-Darby Bovine Kidney Cells (MDBK) (American Type Culture Collection (ATCC) No. CCL-22, Manassas, Va) were seeded into 96-well plates at a density of approximately 2×10^4 cells per well. The cell cultures were incubated for 3-24 hours to allow for attachment of cells to the culture plates prior to infection and addition of compounds. BVDV strain NADL (ATCC No. VR-534) plaque forming units (PFU) were added to each well to achieve a multiplicity of infection (MOI) ranging from about 1 or about 0.001, and allowed to remain in contact with the cultured cells for 1 to 2 hours. The virus was then removed and the cells were washed with growth medium (e.g., Dulbecco's Modified Eagles Medium (DMEM)) containing 5% horse serum (HS), or with phosphate buffered saline (PBS), 1% HS, and 1 mM MgCl2. The test compounds, dissolved in cell growth media with 2% HS, were then added to the BVDV-infected cells or uninfected cells (cytotoxicity determination) at various concentrations. The plates were incubated at 37° C., 5% CO2 for 24 hours (i.e., about one cycle of BVDV replication). The plates were then centrifuged at low speed and the supernatant was serially diluted for use in infecting a new monolayer of cells in 12-well plates. […] The virus plaques formed in MDBK cell cultures were quantified by a manual count and a titer was determined.

[3] = as above; assay type: cell-based, bovine; conditions: bovine, compared to control, read-out: % Cytotoxicity of Compound 20 (1 μM)
Method: as §1

in vitro [4] = assay type: cell-based; conditions: bovine
Method: Cell proliferation was monitored using a non-radioactive MTS/PMS assay (MTS: 3-(4,5-dimethylthiazol-2-yl)-5-(3-carboxymethoxy phenyl)-2-(4-sulfophenyl)-2H-tetrazolium (Promega, Madison, Wis.)); (PMS: phenazine methosulfate (Sigma Aldrich, St. Louis, Mo.)). MDBK cells were seeded into 96-well plates at a density of approximately 2×10^4 cells per well. The cultures were incubated 3-24 hours to permit attachment of the cells to the plates prior to infection and addition of compounds. […] A 96-well microtiter spectrophotometer plate reader was used to measure the absorbance at 490 nm after incubation of the 96-well plate for 1 to 4 hours at 37° C. in a humidified, 5% CO2 atmosphere. The mean absorbance in each set of triplicate wells was determined. Antiviral activity was measured as MTS conversion relative to the differential between the conversion for cell (non-infected) and viral (non-drug-treated) controls. The cytopathic effect (CPE) reduction for each concentration of the tested compound, which correlated with antiviral activity, was calculated as follows. % CPE reduction=[(D−ND)/(NI−ND)]×100, where D (drug-treated)=the absorbance of drug-treated cells; ND (non drug-treated)=the absorbance of untreated infected cells; and NI (non-infected)=the absorbance of non-infected cells. […]

BVDV strain NADL = assay: Inhibition of viral release in BVDV-infected MDBK cells (plaque titration of supernatant); assay type: cell-based, Bovine Viral Diarrhea virus; conditions: 24 h treatment
Method: as §1

[5] = test system: HCV sub-genomic replicon genotype 1b; assay: HCV sub-genomic replicon assay in AVA5 cells (HCV RNA dot blot hybridization); assay type: cell-based, Hepatitis C Virus; conditions: for SI (Selectivity Index): HCV replicon genotype 1b; for EC50: Hepatitis C virus, AVA5 cells, once daily for three days, HCV RNA 24 h after last dose
[6] = test system: non-cytopathic BVDV Pe515; assay: Non-cytopathic BVDV genomic RNA reduction in MDBK cells (qRT-PCR); assay type: cell-based; conditions: Bovine viral diarrhea virus isolates and strains, 72 h, MOI 0.001, three day treatment, FIG. 1, read-out: EC50 of ncp BVDV genomic replication
Method: MDBK cells were seeded into 6-or 96-well plates at a density of approximately 2×10^4 cells per well. The cultures were incubated 3-24 hours to permit attachment of the cells to the plates prior to infection and addition of compounds. The appropriate number of non-cytopathic BVDV Pe515 (ncp BVDV) PFU were added to each well to achieve the desired MOI (0.001); the cells were contacted with the virus diluted at the appropriate concentration in PBS containing 1% HS and 1 mM MgCl2 for 1 to 2 hours. The test compounds dissolved in cell growth media with 2% HS were added to the cells at varying concentrations. The plates were incubated at 37° C. in the presence of 5% CO2 for 3-4 days. […] Real-time quantitation was done using the Quantitative One Step Reverse Transcriptase (RT) Polymerase Chain Reaction (qRT-PCR) MasterMix Plus for SYBR® Green I (Eurogentec, San Diego, calif.). […] The following primers were used for the one step RT-PCR SYBR quantitation assay: forward primer 5′-[…]-3′ (SEQ ID NO:1) and reverse primer 5′-[…]-3′ (SEQ ID NO:2). […] Well-to-well variations in background fluorescence were corrected for by use of a ROX-labeled passive reference, included as part of the Eurogentec One Step qRT-PCR Master Mix for each sample. Amplification curves were analyzed by using empirically established cycle threshold and baseline settings for the assay. […]

CEM-SS cells = assay: Cytotoxicity in CEM-SS cells; conditions: at 300 μM
[7] = MOI of 0.01, monotherapy run in parallel to combination studies, read-out: EC50 (monotherapy)
[8] = MOI = 0.05, 3-4 days, read-out: EC50

Compound	EC50 (BVDV-NADL; [7]) [µM]	CC50 (in vitro [1]) [µM]	EC50 (HIV-1RF) [µM]	CC50 at 3 days [2] [µM]	SI (Selectivity Index) [5]	EC50 [5] [µM]	other results
CCCC(=O)O[C@H]1CN2CC[C@H](O)[C@@H]2[C@@H](O)[C@@H]1O [Celgosivir, [1S-(1α,6β,7α,8β,8αβ)]-octahydro-1,6,7,8-indolizinetetrol 6-butanoate, reference compound]	2.2						
C[C@@]1(O)[C@H](O)[C@@H](CO)O[C@H]1n1ccc(N)nc1=O [NM107, 2′-C-methyl cytidine, reference compound]	0.99						
C[C@]12CCC3c4cc(C56CC7CC(CC(C7)C5)C6)c(O)cc4CCC3C1CCC2=O (stereo partly shown) [Compound 2]	0.23	> 100	19.7				
CO/N=C1\CC[C@H]2[C@@H]3CCc4cc(O)c(C56CC7CC(CC(C7)C5)C6)cc4[C@H]3CC[C@]12C [Compound 5]		17.3	5.8				
C[C@]12CC[C@@H]3c4cc(C56CC7CC(CC(C7)C5)C6)c(O)cc4CC[C@H]3[C@@H]1CC[C@@H]2O [Compound 20, 17(β)-2-(1-adamantyl)-estra-1,3,5(10)-triene-3,17-diol]		14.3	8.6	8.1	188	0.043	OD490 - 1 μM Compound 20 (MDBK cells): 1.2; cytotoxicity at 24 h, 1 µM [3]: 0%; CC50 (in vitro [4]): 40.1 ± 25.1 µM; Viral titer in presence of 1 μM of Compound 20 (BVDV strain NADL; untreated control 7.0 × 10^5 PFU/mL): 2.2 × 10^5 PFU/mL; inhibition at 1 µM (BVDV strain NADL; Bovine viral diarrhea virus isolates and strains, MDBK, compared to control, read-out: % Inhibition of Viral Release by Compound 20 at 1 μM): 69%; EC50 (BVDV-NADL; MOI 0.01, read-out: EC50): 0.34 ± 0.02 µM; EC50 (BVDV-NADL; MOI 0.02, read-out: EC50): 0.51 µM; EC50 (BVDV-NADL; MOI 0.03, read-out: EC50): 0.46 µM; EC50 (BVDV-NADL; [8]): 0.8 ± 0.22 µM; EC50 [6]: ~0.15 µM
C[C@]12CC[C@@H]3c4ccc(OS(=O)(=O)O)cc4CC[C@H]3[C@@H]1CC[C@H]2O [Compound 16, 17(α)-estradiol-3-sulfate sodium]			> 300	> 100	>196	0.51	CC50 (in vitro [1]; CEM-SS cells): > 300 µM; cytotoxicity shown by the compound (CEM-SS cells): no cytotoxicity; inhibition at 300 µM (HIV-1RF; read-out: inhibition of HIV-1 induced cytotoxicity in CEM-SS cells): 20%
C[C@]12CC[C@@H]3c4cc(C56CC7CC(CC(C7)C5)C6)c(O)cc4CC[C@H]3[C@@H]1CC/C2=N\N [Compound 4]				24	353	0.068	CC50 (in vitro [4]): 34.5 ± 23.2 µM; EC50 (BVDV-NADL; [8]): 3.99 ± 0.99 µM
